Data from patent publication US11912703B2, “6-azaindole compounds” (BRISTOL-MYERS SQUIBB COMPANY, priority 2017, dated 2024).

The molecules below were run against human TLR7 (Homo sapiens (Human), UniProt Q9NYK1) (assay: TLR7 inhibition reporter assay (HEK-Blue SEAP)). Conditions: HEK-Blue cells overexpressing human TLR7, gardiquimod 7.5 μM stimulation.
human TLR7, sequence (Q9NYK1 27-1049): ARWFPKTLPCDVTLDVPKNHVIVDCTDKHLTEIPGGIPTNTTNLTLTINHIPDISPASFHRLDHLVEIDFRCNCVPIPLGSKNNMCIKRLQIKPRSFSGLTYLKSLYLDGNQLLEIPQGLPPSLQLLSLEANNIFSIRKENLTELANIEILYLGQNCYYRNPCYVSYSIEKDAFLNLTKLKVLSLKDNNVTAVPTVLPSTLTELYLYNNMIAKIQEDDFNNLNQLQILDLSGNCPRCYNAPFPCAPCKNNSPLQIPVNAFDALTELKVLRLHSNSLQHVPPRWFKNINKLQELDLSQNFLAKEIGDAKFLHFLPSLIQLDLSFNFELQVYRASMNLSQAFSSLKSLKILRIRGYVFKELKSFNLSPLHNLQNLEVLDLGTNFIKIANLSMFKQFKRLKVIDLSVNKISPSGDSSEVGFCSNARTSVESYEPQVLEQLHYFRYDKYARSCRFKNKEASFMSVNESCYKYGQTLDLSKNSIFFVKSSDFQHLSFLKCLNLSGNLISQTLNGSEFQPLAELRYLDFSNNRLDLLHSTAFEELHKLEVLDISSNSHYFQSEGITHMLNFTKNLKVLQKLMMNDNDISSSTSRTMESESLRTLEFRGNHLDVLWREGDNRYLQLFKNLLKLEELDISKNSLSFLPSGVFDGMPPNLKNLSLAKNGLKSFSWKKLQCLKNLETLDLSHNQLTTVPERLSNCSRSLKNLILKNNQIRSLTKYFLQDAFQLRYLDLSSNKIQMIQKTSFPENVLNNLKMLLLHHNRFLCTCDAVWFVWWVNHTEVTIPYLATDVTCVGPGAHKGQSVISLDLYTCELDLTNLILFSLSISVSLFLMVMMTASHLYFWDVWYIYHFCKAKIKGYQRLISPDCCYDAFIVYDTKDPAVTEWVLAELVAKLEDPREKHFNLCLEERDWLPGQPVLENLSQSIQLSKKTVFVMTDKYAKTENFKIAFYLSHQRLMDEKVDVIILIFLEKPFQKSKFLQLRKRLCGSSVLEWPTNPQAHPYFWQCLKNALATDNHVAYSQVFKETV
Type: cell-based
Experimental: HEK-Blue™-cells (Invivogen) overexpressing human TLR7, TLR8 or TLR9 receptors were used for screening inhibitors of these receptors using an inducible SEAP (secreted embryonic alkaline phosphatase) reporter gene under the control of the IFN-β minimal promoter fused to five NF-κB and AP-1-binding sites. Briefly, cells are seeded into Greiner 384 well plates (15000 cells per well for TLR7, 20,000 for TLR8 and 25,000 for TLR9) and then treated with test compounds in DMSO to yield a final dose response concentration range of 0.05 nM-50 μM. After a 30 minute compound pre-treatment at room temperature, the cells are then stimulated with a TLR7 ligand (gardiquimod at a final concentration of 7.5 μM), TLR8 ligand (R848 at a final concentration of 15.9 μM) or TLR9 ligand (ODN2006 at a final concentration of 5 nM) to activate NF-κB and AP-1 which induce the production of SEAP. After a 22 hour incubation at 37° C., 500 CO2, SEAP levels are determined with the addition of HEK-Blue™ Detection reagent (Invivogen), a cell culture medium that allows for detection of SEAP, according to manufacturer's specifications.
`COc1cc(-c2[nH]c3cnc(C4CCC(NCC(C)(C)OC)C4)cc3c2C(C)C)cn2ncnc12` (stereo not drawn) [Example 211] showed an IC50 of 41 nM.
In the case of `CCN(C)C1CCC(c2ncc3[nH]c(-c4cn5ncnc5c(C)c4C)c(C(C)C)c3c2F)CC1` (stereo not drawn) [Example 135], the IC50 is reported as 0.24 nM.
Molecule `CNC(=O)CN1CCC(c2ncc3[nH]c(-c4cc(C)nc(C)c4)c(C(C)C)c3c2F)CC1` [Example 150] has an IC50 of 3.4 nM.
Work on `Cc1c(-c2[nH]c3cnc(C4CCC(NC(C)C)CC4)c(C)c3c2C(C)C)cn2ncnc2c1C` (stereo not drawn) [Example 61] yielded an IC50 of 28 nM.
In the case of `COc1cc(-c2[nH]c3cnc(N4CCC(NCC(=O)N(C)C)CC4)cc3c2C(C)C)cn2ncnc12` [Example 333], the IC50 is reported as 5.4 nM.
`Cc1c(-c2[nH]c3cnc(C4CCC(NC5COC5)CC4)cc3c2C(C)C)cn2ncnc2c1C` (stereo not drawn) [Example 334] gave an IC50 of 0.35 nM.
`Cc1c(-c2[nH]c3cnc(C4CCC(NCC5(C)COC5)CC4)c(C)c3c2C(C)C)cn2ncnc2c1C` (stereo not drawn) [Example 203] showed an IC50 of 27 nM.
For `COc1cc(-c2[nH]c3cnc(N4CC5(CN(CCS(C)(=O)=O)C5)C4)c(F)c3c2C(C)C)cn2ncnc12` [Example 357], the IC50 was 21 nM.
`CCN(C)C1CCN(c2ncc3[nH]c(-c4cc(OC)c5ncnn5c4)c(C(C)C)c3c2C)CC1` [Example 138] was tested, and the IC50 was 0.26 nM.
In the case of `COc1cc(-c2[nH]c3cnc(N4CCN(CC(=O)N(C)C)CC4)c(Cl)c3c2C(C)C)cn2ncnc12` [Example 305], the IC50 is reported as 2.5 nM.
`COc1cc(-c2[nH]c3cnc(C4CCC(N5CC6(COC6)C5)C4)cc3c2C(C)C)cn2ncnc12` (stereo not drawn) [Example 141] was tested, and the IC50 was 27 nM.
In the case of `COc1cc(-c2[nH]c3cnc(N4CCN(C5CCN(C(C)C)CC5)C[C@H]4C)c(F)c3c2C(C)C)cn2ncnc12` [Example 451], the IC50 is reported as 2.6 nM.
Work on `CNC1CCN(c2ncc3[nH]c(-c4cc(C)c5ncnn5c4)c(C(C)C)c3c2F)CC1` [Example 71] yielded an IC50 of 0.41 nM.
`Cc1cc(-c2[nH]c3cnc(C4CCC(NC5COC5)CC4)c(F)c3c2C(C)C)cn2ncnc12` (stereo not drawn) [Example 80] gave an IC50 of 0.16 nM.
Molecule `COc1cc(-c2[nH]c3cnc(N4CCC(NCC5(C)COC5)CC4)c(C)c3c2C(C)C)cn2ncnc12` [Example 147] has an IC50 of 0.62 nM.
Molecule `COc1cc(-c2[nH]c3cnc(N4CCC(N5CCOCC5)CC4)c(C)c3c2C(C)C)cn2ncnc12` [Example 278] has an IC50 of 0.79 nM.
`Cc1c(-c2[nH]c3cnc(N4CCN(C(=O)CN5CCOCC5)C[C@H]4C)c(F)c3c2C(C)C)cn2ncnc2c1C` [Example 471] was tested, and the IC50 was 27 nM.
Work on `Cc1cc(-c2[nH]c3cnc(C4CCN(C(C)C)CC4)c(F)c3c2C(C)C)cc(C)n1` [Example 97] yielded an IC50 of 2.5 nM.
`CNC(=O)CN1CCN(c2ncc3[nH]c(-c4cc(OC)c5ncnn5c4)c(C(C)C)c3c2C)CC1` [Example 40] was tested, and the IC50 was 9.9 nM.

What follows are molecules tested against human TLR8 (Homo sapiens (Human), UniProt Q9NR97) (assay: TLR8 inhibition reporter assay (HEK-Blue SEAP)). Conditions: read-out: TLR8 IC50; HEK-Blue cells overexpressing human TLR8, R848 15.9 μM stimulation, SEAP reporter.
human TLR8, sequence (Q9NR97 27-1041): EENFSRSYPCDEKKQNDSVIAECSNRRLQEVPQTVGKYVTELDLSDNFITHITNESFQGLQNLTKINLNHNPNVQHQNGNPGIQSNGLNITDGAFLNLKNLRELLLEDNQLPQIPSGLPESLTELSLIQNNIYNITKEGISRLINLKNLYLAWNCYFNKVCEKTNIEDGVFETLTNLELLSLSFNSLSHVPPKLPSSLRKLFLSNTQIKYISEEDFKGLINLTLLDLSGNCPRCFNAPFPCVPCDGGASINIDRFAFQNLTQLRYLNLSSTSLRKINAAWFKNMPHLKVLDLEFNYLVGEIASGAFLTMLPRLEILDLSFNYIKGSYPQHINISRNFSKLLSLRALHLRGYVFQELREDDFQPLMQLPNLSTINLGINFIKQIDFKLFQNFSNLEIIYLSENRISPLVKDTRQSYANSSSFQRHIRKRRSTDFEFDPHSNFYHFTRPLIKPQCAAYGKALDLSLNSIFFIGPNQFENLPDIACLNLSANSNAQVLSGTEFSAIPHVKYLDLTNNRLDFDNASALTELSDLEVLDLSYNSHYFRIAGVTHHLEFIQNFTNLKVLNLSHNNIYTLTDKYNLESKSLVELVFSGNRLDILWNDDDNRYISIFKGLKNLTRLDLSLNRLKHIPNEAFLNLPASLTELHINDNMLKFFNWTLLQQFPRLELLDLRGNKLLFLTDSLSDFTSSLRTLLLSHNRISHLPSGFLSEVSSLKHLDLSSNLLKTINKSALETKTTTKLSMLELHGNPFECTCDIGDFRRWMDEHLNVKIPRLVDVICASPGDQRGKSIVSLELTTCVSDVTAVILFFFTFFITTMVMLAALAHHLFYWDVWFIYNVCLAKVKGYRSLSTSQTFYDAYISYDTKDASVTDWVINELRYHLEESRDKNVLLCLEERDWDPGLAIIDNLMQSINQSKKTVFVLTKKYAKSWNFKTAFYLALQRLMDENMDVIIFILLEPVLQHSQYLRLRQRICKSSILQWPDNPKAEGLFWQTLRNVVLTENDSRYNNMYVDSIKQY
With `COc1cc(-c2[nH]c3cnc(C4CCC(NCC(C)(C)OC)C4)cc3c2C(C)C)cn2ncnc12` (stereo not drawn) [Example 211] the IC50 was 44 nM.
`CCN(C)C1CCC(c2ncc3[nH]c(-c4cn5ncnc5c(C)c4C)c(C(C)C)c3c2F)CC1` (stereo not drawn) [Example 135] gave an IC50 of 0.48 nM.
`CNC(=O)CN1CCC(c2ncc3[nH]c(-c4cc(C)nc(C)c4)c(C(C)C)c3c2F)CC1` [Example 150] gave an IC50 of 5.3 nM.
`Cc1c(-c2[nH]c3cnc(C4CCC(NC(C)C)CC4)c(C)c3c2C(C)C)cn2ncnc2c1C` (stereo not drawn) [Example 61] gave an IC50 of 35 nM.
For `COc1cc(-c2[nH]c3cnc(N4CCC(NCC(=O)N(C)C)CC4)cc3c2C(C)C)cn2ncnc12` [Example 333], the IC50 was 4.3 nM.
With `Cc1c(-c2[nH]c3cnc(C4CCC(NC5COC5)CC4)cc3c2C(C)C)cn2ncnc2c1C` (stereo not drawn) [Example 334] the IC50 was 1.4 nM.
`Cc1c(-c2[nH]c3cnc(C4CCC(NCC5(C)COC5)CC4)c(C)c3c2C(C)C)cn2ncnc2c1C` (stereo not drawn) [Example 203] showed an IC50 of 9.3 nM.
`COc1cc(-c2[nH]c3cnc(N4CC5(CN(CCS(C)(=O)=O)C5)C4)c(F)c3c2C(C)C)cn2ncnc12` [Example 357] was tested, and the IC50 was 10 nM.
`CCN(C)C1CCN(c2ncc3[nH]c(-c4cc(OC)c5ncnn5c4)c(C(C)C)c3c2C)CC1` [Example 138] showed an IC50 of 0.49 nM.
In the case of `COc1cc(-c2[nH]c3cnc(N4CCN(CC(=O)N(C)C)CC4)c(Cl)c3c2C(C)C)cn2ncnc12` [Example 305], the IC50 is reported as 1.4 nM.
`COc1cc(-c2[nH]c3cnc(C4CCC(N5CC6(COC6)C5)C4)cc3c2C(C)C)cn2ncnc12` (stereo not drawn) [Example 141] showed an IC50 of 25 nM.
`CNC1CCN(c2ncc3[nH]c(-c4cc(C)c5ncnn5c4)c(C(C)C)c3c2F)CC1` [Example 71] gave an IC50 of 0.65 nM.
`Cc1cc(-c2[nH]c3cnc(C4CCC(NC5COC5)CC4)c(F)c3c2C(C)C)cn2ncnc12` (stereo not drawn) [Example 80] gave an IC50 of 0.6 nM.
In the case of `COc1cc(-c2[nH]c3cnc(N4CCC(NCC5(C)COC5)CC4)c(C)c3c2C(C)C)cn2ncnc12` [Example 147], the IC50 is reported as 0.27 nM.
In the case of `COc1cc(-c2[nH]c3cnc(N4CCC(N5CCOCC5)CC4)c(C)c3c2C(C)C)cn2ncnc12` [Example 278], the IC50 is reported as 0.58 nM.
For `Cc1cc(-c2[nH]c3cnc(C4CCN(C(C)C)CC4)c(F)c3c2C(C)C)cc(C)n1` [Example 97], the IC50 was 7.4 nM.
`CNC(=O)CN1CCN(c2ncc3[nH]c(-c4cc(OC)c5ncnn5c4)c(C(C)C)c3c2C)CC1` [Example 40] gave an IC50 of 11 nM.

Same assay, conditions: read-out: TLR8 IC50; HEK-Blue cells overexpressing human TLR8; R848 15.9 μM stimulation; SEAP reporter
`COc1cc(-c2[nH]c3cnc(N4CCN(C5CCN(C(C)C)CC5)C[C@H]4C)c(F)c3c2C(C)C)cn2ncnc12` [Example 451] was tested, and the IC50 was 5.7 nM.
Work on `Cc1c(-c2[nH]c3cnc(N4CCN(C(=O)CN5CCOCC5)C[C@H]4C)c(F)c3c2C(C)C)cn2ncnc2c1C` [Example 471] yielded an IC50 of 2.7 nM.

The molecules below were run against human TLR9 (Homo sapiens (Human), UniProt Q9NR96) (assay: TLR9 inhibition reporter assay (HEK-Blue SEAP)). Conditions: read-out: TLR9 IC50; HEK-Blue cells overexpressing human TLR9, ODN2006 5 nM stimulation, SEAP reporter.
human TLR9, sequence (Q9NR96 26-1032): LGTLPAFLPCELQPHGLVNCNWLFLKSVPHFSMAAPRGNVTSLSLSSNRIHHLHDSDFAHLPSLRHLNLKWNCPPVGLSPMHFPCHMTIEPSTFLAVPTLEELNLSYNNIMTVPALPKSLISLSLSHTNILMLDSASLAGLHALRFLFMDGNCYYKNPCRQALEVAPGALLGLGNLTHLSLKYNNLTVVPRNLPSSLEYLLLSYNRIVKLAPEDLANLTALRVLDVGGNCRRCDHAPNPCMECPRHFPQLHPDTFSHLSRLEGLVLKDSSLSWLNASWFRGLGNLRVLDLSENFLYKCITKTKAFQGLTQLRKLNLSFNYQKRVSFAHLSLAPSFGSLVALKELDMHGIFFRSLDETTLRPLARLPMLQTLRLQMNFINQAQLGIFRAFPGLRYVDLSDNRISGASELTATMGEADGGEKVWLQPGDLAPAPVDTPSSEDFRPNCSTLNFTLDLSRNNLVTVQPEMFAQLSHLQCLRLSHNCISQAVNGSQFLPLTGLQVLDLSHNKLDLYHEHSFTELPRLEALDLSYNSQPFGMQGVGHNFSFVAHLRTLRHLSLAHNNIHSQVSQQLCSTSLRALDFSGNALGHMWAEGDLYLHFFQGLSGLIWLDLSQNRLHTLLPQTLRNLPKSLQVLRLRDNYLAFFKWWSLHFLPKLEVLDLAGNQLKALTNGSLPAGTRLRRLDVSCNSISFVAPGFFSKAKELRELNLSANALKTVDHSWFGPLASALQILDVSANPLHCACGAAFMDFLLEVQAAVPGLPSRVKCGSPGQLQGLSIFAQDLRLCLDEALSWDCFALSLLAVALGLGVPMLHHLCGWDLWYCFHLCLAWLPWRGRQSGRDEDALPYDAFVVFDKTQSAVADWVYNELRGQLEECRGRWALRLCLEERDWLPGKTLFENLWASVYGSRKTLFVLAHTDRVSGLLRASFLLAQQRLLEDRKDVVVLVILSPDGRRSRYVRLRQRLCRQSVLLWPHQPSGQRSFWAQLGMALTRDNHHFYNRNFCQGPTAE
In the case of `COc1cc(-c2[nH]c3cnc(C4CCC(NCC(C)(C)OC)C4)cc3c2C(C)C)cn2ncnc12` (stereo not drawn) [Example 211], the IC50 is reported as 2250 nM.
Work on `CCN(C)C1CCC(c2ncc3[nH]c(-c4cn5ncnc5c(C)c4C)c(C(C)C)c3c2F)CC1` (stereo not drawn) [Example 135] yielded an IC50 of 6500 nM.
`CNC(=O)CN1CCC(c2ncc3[nH]c(-c4cc(C)nc(C)c4)c(C(C)C)c3c2F)CC1` [Example 150] was tested, and the IC50 was 6060 nM.
`Cc1c(-c2[nH]c3cnc(C4CCC(NC(C)C)CC4)c(C)c3c2C(C)C)cn2ncnc2c1C` (stereo not drawn) [Example 61] gave an IC50 of 346 nM.
In the case of `COc1cc(-c2[nH]c3cnc(N4CCC(NCC(=O)N(C)C)CC4)cc3c2C(C)C)cn2ncnc12` [Example 333], the IC50 is reported as 1060 nM.
Work on `Cc1c(-c2[nH]c3cnc(C4CCC(NC5COC5)CC4)cc3c2C(C)C)cn2ncnc2c1C` (stereo not drawn) [Example 334] yielded an IC50 of 452 nM.
In the case of `Cc1c(-c2[nH]c3cnc(C4CCC(NCC5(C)COC5)CC4)c(C)c3c2C(C)C)cn2ncnc2c1C` (stereo not drawn) [Example 203], the IC50 is reported as 513 nM.
With `COc1cc(-c2[nH]c3cnc(N4CC5(CN(CCS(C)(=O)=O)C5)C4)c(F)c3c2C(C)C)cn2ncnc12` [Example 357] the IC50 was 37400 nM.
`CCN(C)C1CCN(c2ncc3[nH]c(-c4cc(OC)c5ncnn5c4)c(C(C)C)c3c2C)CC1` [Example 138] gave an IC50 of 1900 nM.
`COc1cc(-c2[nH]c3cnc(N4CCN(CC(=O)N(C)C)CC4)c(Cl)c3c2C(C)C)cn2ncnc12` [Example 305] gave an IC50 of 2830 nM.
For `COc1cc(-c2[nH]c3cnc(C4CCC(N5CC6(COC6)C5)C4)cc3c2C(C)C)cn2ncnc12` (stereo not drawn) [Example 141], the IC50 was 482 nM.
`CNC1CCN(c2ncc3[nH]c(-c4cc(C)c5ncnn5c4)c(C(C)C)c3c2F)CC1` [Example 71] gave an IC50 of 3610 nM.
`Cc1cc(-c2[nH]c3cnc(C4CCC(NC5COC5)CC4)c(F)c3c2C(C)C)cn2ncnc12` (stereo not drawn) [Example 80] showed an IC50 of 1830 nM.
Work on `COc1cc(-c2[nH]c3cnc(N4CCC(NCC5(C)COC5)CC4)c(C)c3c2C(C)C)cn2ncnc12` [Example 147] yielded an IC50 of 2060 nM.
Work on `COc1cc(-c2[nH]c3cnc(N4CCC(N5CCOCC5)CC4)c(C)c3c2C(C)C)cn2ncnc12` [Example 278] yielded an IC50 of 1100 nM.
`Cc1cc(-c2[nH]c3cnc(C4CCN(C(C)C)CC4)c(F)c3c2C(C)C)cc(C)n1` [Example 97] was tested, and the IC50 was 1080 nM.
`CNC(=O)CN1CCN(c2ncc3[nH]c(-c4cc(OC)c5ncnn5c4)c(C(C)C)c3c2C)CC1` [Example 40] was tested, and the IC50 was 8310 nM.

Same assay, conditions: read-out: TLR9 IC50; HEK-Blue cells overexpressing human TLR9; ODN2006 5 nM stimulation; SEAP reporter
`COc1cc(-c2[nH]c3cnc(N4CCN(C5CCN(C(C)C)CC5)C[C@H]4C)c(F)c3c2C(C)C)cn2ncnc12` [Example 451] gave an IC50 of 792 nM.
With `Cc1c(-c2[nH]c3cnc(N4CCN(C(=O)CN5CCOCC5)C[C@H]4C)c(F)c3c2C(C)C)cn2ncnc2c1C` [Example 471] the IC50 was > 50000 nM.
